# Assay results taken from US12582717B2, “Protein based excipient for active pharmaceutical ingredients” (ROUSSELOT B.V., priority 2016, dated 2026).
# “And” between values parts separate entries of the source, which are not always exact repeats. Equal entries are not always repeated. Where two headings read alike, the source gives them in different places.
# Tests used:
# [1] = molecular target: T1, BSA (Bos taurus, UniProt P02769); assay: Tryptophan quenching binding of Flubendazole to BSA; parameters: species or system bovine; details: read-out: dissociation constant Kd
# T1 construct: from tissue; host or cells: bovine origin (tissue or fluid not specified)
# T1 sequence (P02769 25-607): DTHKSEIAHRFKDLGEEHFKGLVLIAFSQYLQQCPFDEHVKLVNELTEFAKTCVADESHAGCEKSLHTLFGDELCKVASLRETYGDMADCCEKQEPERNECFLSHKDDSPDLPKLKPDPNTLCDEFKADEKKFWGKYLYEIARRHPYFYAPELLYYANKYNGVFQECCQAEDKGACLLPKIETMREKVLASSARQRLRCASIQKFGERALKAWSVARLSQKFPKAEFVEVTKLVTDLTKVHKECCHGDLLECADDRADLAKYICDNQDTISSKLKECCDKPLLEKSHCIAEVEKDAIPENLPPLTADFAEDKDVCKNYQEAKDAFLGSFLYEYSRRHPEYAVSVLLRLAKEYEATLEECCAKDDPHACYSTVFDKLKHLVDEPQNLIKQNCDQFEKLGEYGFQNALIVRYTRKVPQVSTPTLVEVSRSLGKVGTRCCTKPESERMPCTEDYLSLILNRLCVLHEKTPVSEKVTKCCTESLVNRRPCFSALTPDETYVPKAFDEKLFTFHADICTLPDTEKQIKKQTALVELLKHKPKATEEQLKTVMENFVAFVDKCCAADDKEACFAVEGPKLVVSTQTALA
# Text: For the following experiment the binding strength of a protein based excipient to a model API was verified. For the purposes of this experiment, BSA was the protein source, Flubendazole was used as the model API, formic acid served as the solvent and spray drying was chosen as the drying method.
# [2] = Equilibrium solubility of Flubendazole in FaSSGF (RP-HPLC); assay type: physicochemical; details: FaSSGF (fasted state simulated gastric fluid), pH 1.6, fassgf or other biorelevant, thermodynamic from solid; FaSSGF (1.6 pH), excess Flubendazole rotated up to 72 hours; read-out: equilibrium solubility in FaSSGF medium
# Protocol: The dissolution profile and supersaturation state (i.e., the available concentration) was tested using a dissolution media which simulates the juice present in the human stomach before (i.e. fasted state) eating food; namely FaSSGF (1.6 pH) available from Bio-relevant®. A suitable method for determining the concentration is Reversed phase High-performance liquid chromatography (RP-HPLC), which separates molecules based on hydrophobicity causing different retention times as they flow out the column. The further working principles of RP-HPLC are known in the art. The RP-HPLC set-up used an Eclipse Zorbax Agilent 5 μm (4.6×150 mm) column with a flow Rate of 1 ml/min. The injection volume was 20 μl with the mobile phase containing ACN/TFA 0.1% (55:45) and an elution time of Flubendazole about ±1.9 min. The wavelength for measurements was set at 280 nm.
# Prior to the experiments, the solubility of Flubendazole in FaSSGF was determined to serve as the baseline reference value. The reference solution was prepared by bringing an excess of Flubendazole in 8 ml FaSSGF solution. This solution was rotated during 72 hours and a 1 ml sample was taken every 24 hours. These reference samples were filtered through a Polytetrafluoroethylene (PTFE) 0.45 μm filter to determine the concentration of Flubendazole through the tested RP-HPLC method. […]
# [3] = Solubility statements in the description; assay type: physicochemical
# [4] = Dissolution of solvent-cast protein films (Example 1); assay type: physicochemical; details: film cast from 5% solution in formic acid; 37° C., 0.1N HCl pH 1.5 for 90 minutes, then pH 6.8 up to 330 minutes
# Protocol: In the following experiment 5% solutions of various proteins were dissolved in formic acid and solvent-casted into protein films. The proteins were selected from gelatin, BSA (albumin), pea, soy, whey and zein (corn). The protein films were then dissolved at 37° C. in 0.1N HCl with a pH of 1.5 for 90 minutes, after which the pH was adjusted to 6.8 over a time period up to 330 minutes.
# The dissolution of the protein films was evaluated using spectrophotometry (absorbance at 280 nm), and plotted as a function of time.
compound,measurement,setting,value
COC(=O)Nc1nc2cc(C(=O)c3ccc(F)cc3)ccc2[nH]1 [Flubendazole],Kd,[1]; pH 1.0,234 µM and ~234 µM
same,Kd,[1]; pH 4.0,133 µM and ~133 µM
same,Kd,[1]; pH 7.0,116 µM and ~116 µM
same,solubility thermodynamic at 72 h,[2],11.2 µg/mL
CCCS(=O)(=O)Nc1ccc(F)c(C(=O)c2c[nH]c3ncc(-c4ccc(Cl)cc4)cc23)c1F [Vemurafenib],solubility in methanol,[3],does not dissolve
Zein,dissolution level of protein film,[4],about 10%
gelatin,dissolution level of protein film,[4],(near) complete dissolution
